Test results from paper PMC10139140, “Synthesis of Novel 2-(Cyclopentylamino)thiazol-4(5H)-one Derivatives with Potential Anticancer, Antioxidant, and 11β-HSD Inhibitory Activities” (International Journal of Molecular Sciences, 2023).

Experiments:
glioma (U-118 MG) = experiment: MTS metabolic activity assay, U-118 MG cells; type: cell-based; settings: Homo sapiens, U-118-MG, U118-MG, 72 h, read-out: Cell metabolic activity (MTS), % of untreated control
Method: (§1) The BJ (CRL-2522), Caco-2 (HTB-37), PANC-1 (CRL-1469), U-118 MG (HTB-15), SK-MEL-30 (ACC 151), and MDA-MB-231 (HTB-26) cell lines were purchased from ATCC (Manassas, VA, USA) or DSMZ (Braunschweig, GERMANY). Cells were cultured in accordance with manufacturers' recommendations in a DMEM, MEM, or RPMI-1640 (Sigma, Saint Louis, MO, USA; Gibco, Waltham, MA, USA), supplemented with 10% FBS, except for Caco-2 (20%) (Thermo Fisher Scientific, Waltham, MA, USA) and 1% antibiotic mix solution (penicillin, streptomycin; Thermo Fisher Scientific, Waltham, MA, USA) in a humidified atmosphere with 5% CO2 at 37 °C. All cell lines were cultured in T75 cell culture flasks or cell culture dishes to reach 80–90% confluency and seeded at a standard density of 5 × 10^3 cells/0.32 cm^2, except for BJ cells at 2 × 10^3 cells/0.32 cm^2.
(§2) The MTS ((MTS: 3-(4,5-dimethylthiazol-2-yl)-5-(3-carboxymethoxyphenyl)-2-(4-sulfophenyl)-2H-tetrazolium)) assay was performed following previously reported method. Briefly, cells were seeded at a standard density into 96-well flat-bottom plates and incubated for 24 h, followed by the treatment. The various concentrations of compounds were prepared and treated for the next 72 h. MTS solution was added for 3h and incubated at standard conditions, protected from light. Finally, the absorbance was read at […] and 620 nm wavelengths using a Synergy H1 microplate reader (BioTek, Santa Clara, CA, USA). The results are presented as %, while untreated control cells were considered 100%.

[1] = system: human breast carcinoma (MDA-MB-231); experiment: MTS metabolic activity assay, MDA-MB-231 cells; type: cell-based; settings: 72 h
Method: as §1, §2

BJ cells = experiment: MTS metabolic activity assay, BJ cells; type: cell-based; settings: Homo sapiens, 72 h, read-out: Cell metabolic activity (MTS), % of untreated control
Method: as §1, §2

[2] = system: human colon carcinoma (Caco-2); experiment: MTS metabolic activity assay, Caco-2 cells; type: cell-based; settings: Homo sapiens, 72 h, read-out: Cell metabolic activity (MTS), % of untreated control
Method: as §1, §2

[3] = system: human pancreatic carcinoma (PANC-1); experiment: MTS metabolic activity assay, PANC-1 cells; type: cell-based; settings: Homo sapiens, 72 h, read-out: Cell metabolic activity (MTS), % of untreated control
Method: as §1, §2

11β-HSD2 = target: T1, 11β-HSD2 (Homo sapiens, UniProt P80365); experiment: Inhibition of 11β-HSD2 (cortisol to cortisone, human microsomes, cortisol ELISA); type: biochemical; settings: 2.5 h, 37 °C
T1 construct: Human liver microsomes were used as a source of 11β-HSD2 enzyme; tissue XenoTech Lot No. 1710160; host or cells: human kidney microsomes, mixed gender (method text says human liver microsomes)
T1 sequence (P80365 1-405): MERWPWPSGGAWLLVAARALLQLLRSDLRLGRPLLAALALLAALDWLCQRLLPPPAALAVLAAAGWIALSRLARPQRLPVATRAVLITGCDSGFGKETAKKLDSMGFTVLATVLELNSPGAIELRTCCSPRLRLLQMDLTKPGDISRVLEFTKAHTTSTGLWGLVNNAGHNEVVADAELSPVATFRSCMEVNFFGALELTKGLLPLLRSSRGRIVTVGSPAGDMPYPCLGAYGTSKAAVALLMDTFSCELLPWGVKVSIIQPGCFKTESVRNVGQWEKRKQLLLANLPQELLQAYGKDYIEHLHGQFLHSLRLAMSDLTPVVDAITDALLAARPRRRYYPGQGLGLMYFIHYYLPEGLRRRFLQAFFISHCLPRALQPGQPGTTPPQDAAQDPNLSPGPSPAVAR
Method: The resulting solution with a final volume of 100 µL was incubated for 2.5 h at 37 °C. […] The level of unreacted cortisol was measured by a commercially available ELISA kit.

11β-HSD1 = target: T2, 11β-HSD1 (Homo sapiens, UniProt P28845); experiment: Inhibition of 11β-HSD1 (cortisone to cortisol, human liver microsomes, cortisol ELISA); type: biochemical
T2 construct: Human liver microsomes were used as a source of 11β-HSD1 enzyme; tissue XenoTech Lot No. 1410013; host or cells: pooled human liver microsomes, mixed gender
T2 sequence (P28845 whole entry): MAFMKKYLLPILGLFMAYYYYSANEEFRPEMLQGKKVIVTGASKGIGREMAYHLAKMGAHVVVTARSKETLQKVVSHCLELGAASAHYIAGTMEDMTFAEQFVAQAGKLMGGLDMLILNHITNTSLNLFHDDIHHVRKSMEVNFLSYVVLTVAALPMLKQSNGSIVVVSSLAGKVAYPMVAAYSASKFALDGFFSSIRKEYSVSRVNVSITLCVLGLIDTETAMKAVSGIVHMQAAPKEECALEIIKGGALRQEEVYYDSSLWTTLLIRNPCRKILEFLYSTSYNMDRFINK
Method in brief: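 Human liver microsomal conversion of cortisone to cortisol, incubated 2.5 h at 37 °C and stopped with 18β-glycyrrhetinic acid. Cortisol was quantified by ELISA against inhibitor-free controls.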

[4] = system: skin melanoma (SK-MEL-30); experiment: MTS metabolic activity assay, SK-MEL-30 cells; type: cell-based; settings: 72 h
Method: as §1, §2

With CCCC1SC(NC2CCCC2)=NC1=O (centres unmarked) [Compound 3c, 2-(cyclopentylamino)-5-propylthiazol-4(5H)-one] the viability at 10 µM (glioma (U-118 MG); 10 µM) was 111%, the viability at 20 µM (glioma (U-118 MG); 20 µM) was 110% and the viability at 50 µM (glioma (U-118 MG); 50 µM) was 110%. For the same molecule, the viability at 100 µM (glioma (U-118 MG); 100 µM) was 114%, the viability at 200 µM (glioma (U-118 MG); 200 µM) was 113% and the viability at 300 µM (glioma (U-118 MG); 300 µM) was 112%. It also gave a viability at 500 µM (glioma (U-118 MG); 500 µM) of 112%, a viability at 10 µM ([1]; Homo sapiens, MDA-MB-231, 10 µM, read-out: Cell metabolic activity (MTS), % of untreated control) of 101% and a viability at 20 µM ([1]; Homo sapiens, MDA-MB-231, 20 µM, read-out: Cell metabolic activity (MTS), % of untreated control) of 102%. For the same molecule, the viability at 50 µM ([1]; Homo sapiens, MDA-MB-231, 50 µM, read-out: Cell metabolic activity (MTS), % of untreated control) was 99.1%, the viability at 100 µM ([1]; Homo sapiens, MDA-MB-231, 100 µM, read-out: Cell metabolic activity (MTS), % of untreated control) was 97.4% and the viability at 200 µM ([1]; Homo sapiens, MDA-MB-231, 200 µM, read-out: Cell metabolic activity (MTS), % of untreated control) was 88.4%. For the same molecule, the viability at 300 µM ([1]; Homo sapiens, MDA-MB-231, 300 µM, read-out: Cell metabolic activity (MTS), % of untreated control) was 75.9%, the viability at 500 µM ([1]; Homo sapiens, MDA-MB-231, 500 µM, read-out: Cell metabolic activity (MTS), % of untreated control) was 55% and the “cell viability, decreases to” value ([1]; MDA-MB-231, higher concentrations, range given for the most effective substances together) was 20–65%. The viability at 10 µM (BJ cells; 10 µM) was 98.2%, the viability at 20 µM (BJ cells; 20 µM) was 99.7% and the viability at 50 µM (BJ cells; 50 µM) was 102%. It also gave a viability at 100 µM (BJ cells; 100 µM) of 108%, a viability at 200 µM (BJ cells; 200 µM) of 112% and a viability at 300 µM (BJ cells; 300 µM) of 111%. The viability at 500 µM (BJ cells; 500 µM) was 115%, the viability at 10 µM ([2]; Caco-2, 10 µM) was 88.1% and the viability at 20 µM ([2]; Caco-2, 20 µM) was 86.6%. It also gave a viability at 50 µM ([2]; Caco-2, 50 µM) of 87.6%, a viability at 100 µM ([2]; Caco-2, 100 µM) of 82% and a viability at 200 µM ([2]; Caco-2, 200 µM) of 86.1%. It also gave a viability at 300 µM ([2]; Caco-2, 300 µM) of 83.1%, a viability at 500 µM ([2]; Caco-2, 500 µM) of 68.5% and a viability at 10 µM ([3]; PANC-1, 10 µM) of 108%. It also gave a viability at 20 µM ([3]; PANC-1, 20 µM) of 106%, a viability at 50 µM ([3]; PANC-1, 50 µM) of 112% and a viability at 100 µM ([3]; PANC-1, 100 µM) of 114%. The viability at 200 µM ([3]; PANC-1, 200 µM) was 116%, the viability at 300 µM ([3]; PANC-1, 300 µM) was 115% and the viability at 500 µM ([3]; PANC-1, 500 µM) was 122%. The inhibition at 10 µM (11β-HSD2) was 37.7 ± 6.07%, the IC50 (11β-HSD1) was 2750 ± 120 nM and the inhibition at 10 µM (11β-HSD1; 10 µM, 2.5 h, 37 °C) was 56.6 ± 6.11%. The viability at 10 µM ([4]; Homo sapiens, SK-MEL-30, 10 µM, read-out: Cell metabolic activity (MTS), % of untreated control) was 101%, the viability at 20 µM ([4]; Homo sapiens, SK-MEL-30, 20 µM, read-out: Cell metabolic activity (MTS), % of untreated control) was 102% and the viability at 50 µM ([4]; Homo sapiens, SK-MEL-30, 50 µM, read-out: Cell metabolic activity (MTS), % of untreated control) was 101%. For the same molecule, the viability at 100 µM ([4]; Homo sapiens, SK-MEL-30, 100 µM, read-out: Cell metabolic activity (MTS), % of untreated control) was 101%, the viability at 200 µM ([4]; Homo sapiens, SK-MEL-30, 200 µM, read-out: Cell metabolic activity (MTS), % of untreated control) was 95.9% and the viability at 300 µM ([4]; Homo sapiens, SK-MEL-30, 300 µM, read-out: Cell metabolic activity (MTS), % of untreated control) was 75%. For the same molecule, the viability at 500 µM ([4]; Homo sapiens, SK-MEL-30, 500 µM, read-out: Cell metabolic activity (MTS), % of untreated control) was 45.5% and the “cell viability, decreases to” value ([4]; SK-MEL-30, higher concentrations, range given for the most effective substances together) was 20–65%.
